This is an account of results in US20260165973A1 (MERCK SHARP & DOHME LLC, priority 2023, published 2026).

For data set [1] the following is noted: open container at 5° C./ambient RH, 30° C./65% RH, 40° C./75% RH, and 60° C./ambient RH; cited from earlier work.
Data set [2] can be described thus: Solubility / solubilization assessment of doravirine and islatravir. In kind it is physicochemical. The conditions noted are these: islatravir: in water and dissolution media. An excerpt: Details are provided in Example 5.
The manufacturing process includes standard unit operations and equipment for tablet production.

Turning to `Cn1c(Cn2ccc(C(F)(F)F)c(Oc3cc(Cl)cc(C#N)c3)c2=O)n[nH]c1=O` [Neat amorphous doravirine, 3-chloro-5-({1-[(4-methyl-5-oxo-4,5-dihydro-1H-1,2,4-triazol-3-yl)methyl]-2-oxo-4-(trifluoromethyl)-1,2-dihydropyridin-3-yl}oxy)benzonitrile], in data set [1], the “Time to crystallization on storage” value is at most 2 weeks. `C#C[C@@]1(CO)O[C@H](n2cnc3c(N)nc(F)nc32)C[C@H]1O` [islatravir, (2S,3R,5S)-5-(6-amino-2-fluoro-9H-purin-9-yl)-2-ethynyl-2-(hydroxymethyl)tetrahydrofuran-3-ol]: the “Solubility” value in data set [2] is on record as “high solubility”.
